Assay: Dynamic vapor sorption (moisture sorption/desorption)
Type: physicochemical
Settings: for solid form after the DVS experiment (form stability): post-DVS analysis, 5% to 95% RH cycle; for water absorbed (dynamic vapor sorption): up to 95% RH at 25° C.
Procedure: Moisture sorption/desorption data were collected on a VTI SGA-100 Vapor Sorption Analyzer. NaCl and PVP were used as calibration standards. Samples were not dried prior to analysis. Sorption and desorption data were collected over a range from 5% to 95% RH at 10% RH increments under a nitrogen purge. The equilibrium criterion used for analysis was less than 0.0100% weight change in 5 minutes with a maximum equilibration time of 3 hours. Weight percentages reported in the data section are relative to the total sample mass introduced prior to equilibration at 5% RH as measured on the instrument.

With `CCCC[C@](C)(CO)Nc1nc(N)nc2cc(F)cnc12.O=C(O)C(O)C(O)C(=O)O` [Compound I Tartaric Acid, (R)-2-((2-amino-7-fluoropyrido[3,2-d]pyrimidin-4-yl)amino)-2-methylhexan-1-ol tartaric acid] the “solid form after the DVS experiment (form stability)” value (“solid form after the DVS experiment” for short) was “not have changed forms” and the “water absorbed (dynamic vapor sorption)” value was “about 1.5%”.

In the case of `CCCC[C@](C)(CO)Nc1nc(N)nc2cc(F)cnc12.O=C(O)/C=C\C(=O)O` [Compound I Maleic Acid, (R)-2-((2-amino-7-fluoropyrido[3,2-d]pyrimidin-4-yl)amino)-2-methylhexan-1-ol maleic acid], the “solid form after the DVS experiment” value is reported as “not have changed forms” and the “water absorbed (dynamic vapor sorption)” value is reported as “about 0.11%”.

With `CCCC[C@](C)(CO)Nc1nc(N)nc2cc(F)cnc12.CS(=O)(=O)O` [Compound I Methanesulfonic Acid, (R)-2-((2-amino-7-fluoropyrido[3,2-d]pyrimidin-4-yl)amino)-2-methylhexan-1-ol methanesulfonic acid] the “solid form after the DVS experiment” value was “not have changed forms” and the “water absorbed (dynamic vapor sorption)” value was “about 38%”.

For `CCCC[C@](C)(CO)Nc1nc(N)nc2cc(F)cnc12.Cl` [Compound I HCl Form II, (R)-2-((2-amino-7-fluoropyrido[3,2-d]pyrimidin-4-yl)amino)-2-methylhexan-1-ol hydrochloride], the “weight gain, sorption cycle” value (from 5% to 95% RH) was “approximately 19.8%” and the “solid form after the DVS experiment” value (hydrochloride) was “not have changed forms”.

With `CCCC[C@](C)(CO)Nc1nc(N)nc2cc(F)cnc12.O=C(O)/C=C/C(=O)O` [Compound I Fumaric Acid, (R)-2-((2-amino-7-fluoropyrido[3,2-d]pyrimidin-4-yl)amino)-2-methylhexan-1-ol fumaric acid] the “solid form after the DVS experiment” value was “not have changed forms” and the “water absorbed (dynamic vapor sorption)” value was “about 2.3%”.

With `CCCC[C@](C)(CO)Nc1nc(N)nc2cc(F)cnc12.Cl` [Compound I HCl Form I, (R)-2-((2-amino-7-fluoropyrido[3,2-d]pyrimidin-4-yl)amino)-2-methylhexan-1-ol hydrochloride] the “hygroscopicity by dynamic vapor sorption” value (5% to 95% RH) was “hygroscopic”, the “further weight loss, desorption curve” value (below 65% RH down to 5% RH) was “No further weight % loss was observed” and the “weight gain, sorption cycle” value (between 5% and 55% RH) was “approximately 0.6%”. The “weight gain, sorption cycle” value (between 65% RH and 95% RH) was “approximately 28.1%”, the “weight loss, desorption curve” value (between 85% and 65% RH) was 1.8% and the “weight loss, desorption curve” value (from 95% to 85% RH) was “approximately 11.2%”. The “solid form after the DVS experiment” value (hydrochloride) was “composed of a new crystalline material, designated Compound I Hydrochloride Form II”.

In the case of `CCCC[C@](C)(CO)Nc1nc(N)nc2cc(F)cnc12` [Compound I Form I, (R)-2-((2-amino-7-fluoropyrido[3,2-d]pyrimidin-4-yl)amino)-2-methylhexan-1-ol], the “solid form after the DVS experiment” value is reported as “not have changed forms” and the “water absorbed (dynamic vapor sorption)” value is reported as “about 0.89%”.

— US11583531B2, “Solid forms of a toll-like receptor modulator” (Gilead Sciences, Inc., priority 2019, dated 2023)
